Values after ≈ are worked out from the molar mass of the structure shown. Active and inactive are the calls of the source. The rule behind the calls is not given here.
How the values were obtained:
[1] = target: T1, Free fatty acid receptor 1 (Homo sapiens, UniProt O14842); test: Positive allosteric modulation of recombinant human GPR40 expressed in HEK293 cells assessed as increase in [3H]-myo-inositol phosphate accumulation measured after 60 mins in presence of 100% human serum by microbeta counting method; format: functional, cell-based
[2] = target: T1, Free fatty acid receptor 1; test: Positive allosteric modulation of recombinant human GPR40 expressed in HEK293 cells assessed as increase in [3H]-myo-inositol phosphate accumulation measured after 60 mins in absence of human serum by microbeta counting method relative to control; format: functional, cell-based; design: concentration or dose not given beside the values
[3] = target: T1, Free fatty acid receptor 1; test: Positive allosteric modulation of recombinant human GPR40 expressed in HEK293 cells assessed as increase in [3H]-myo-inositol phosphate accumulation measured after 60 mins in absence of human serum by microbeta counting method; format: functional, cell-based
[4] = target: T1, Free fatty acid receptor 1; test: Positive allosteric modulation of recombinant human GPR40 expressed in HEK293 cells assessed as increase in [3H]-myo-inositol phosphate accumulation measured after 60 mins in presence of 100% human serum by microbeta counting method relative to control; format: functional, cell-based
[5] = Solubility of the compound in FASSIF; format: physicochemical
Rattus norvegicus [6] = test: Hypoglycemic activity in Sprague-Dawley rat assessed as reduction in blood glucose AUC at 0.3 mg/kg, po pretreated for 1 hr followed by glucose challenge by OGTT relative to control; format: functional
Rattus norvegicus [7] = test: Hypoglycemic activity in Sprague-Dawley rat assessed as reduction in blood glucose AUC at 3 mg/kg, ip measured after 3 hrs by IPGTT relative to control; format: functional
[8] = Oral bioavailability in Wistar Han rat at 2 mg/kg; format: ADME, organism-based; conditions: in vivo
[9] = Total drug level in Wistar Han rat plasma at 1 mg/kg, iv or 2 mg/kg, po measured at 3 hrs; format: ADME, organism-based
[10] = Clearance in Wistar Han rat at 1 mg/kg, iv or 2 mg/kg, po; format: ADME, organism-based; conditions: in vivo
[11] = Cmax in Wistar Han rat at 1 mg/kg, iv or 2 mg/kg, po; format: ADME, organism-based; conditions: in vivo
[12] = Unbound drug level in Wistar Han rat plasma at 1 mg/kg, iv or 2 mg/kg, po measured at 3 hrs; format: ADME, organism-based; conditions: in vivo
[13] = Dose normalized AUC in Wistar Han rat at 2 mg/kg, po; format: ADME, organism-based; conditions: in vivo
[14] = Protein binding in human plasma assessed as unbound fraction level; format: ADME, cell-free
[15] = Volume of distribution in Wistar Han rat at 1 mg/kg, iv or 2 mg/kg, po; format: ADME, organism-based; conditions: in vivo
[16] = Half-life in Wistar Han rat at 1 mg/kg, iv or 2 mg/kg, po; format: ADME, organism-based; conditions: in vivo
[17] = Drug level in Wistar Han rat assessed as unbound fraction at 1 mg/kg, iv or 2 mg/kg, po; format: ADME, organism-based; conditions: in vivo
Rattus norvegicus [18] = test: Hypoglycemic activity in Sprague-Dawley rat assessed as reduction in blood glucose AUC at 10 mg/kg, po pretreated for 1 hr followed by glucose challenge by OGTT relative to control; format: functional; design: scale not given: the % may be the effect or the level left
[19] = target: T1, Free fatty acid receptor 1; test: Agonist activity at GPR40 (unknown origin) assessed as […] in IP1 accumulation; format: functional
[20] = Stability of the compound in pH 7.4 potassium phosphate buffer at 10 uM measured after 5 hrs; format: physicochemical; conditions: pH 7.4, 5 h
[21] = Drug metabolism in pH 7.4 potassium phosphate buffer assessed as TAK-875 formation at 10 uM measured after 5 hrs

T1 sequence (O14842 whole entry): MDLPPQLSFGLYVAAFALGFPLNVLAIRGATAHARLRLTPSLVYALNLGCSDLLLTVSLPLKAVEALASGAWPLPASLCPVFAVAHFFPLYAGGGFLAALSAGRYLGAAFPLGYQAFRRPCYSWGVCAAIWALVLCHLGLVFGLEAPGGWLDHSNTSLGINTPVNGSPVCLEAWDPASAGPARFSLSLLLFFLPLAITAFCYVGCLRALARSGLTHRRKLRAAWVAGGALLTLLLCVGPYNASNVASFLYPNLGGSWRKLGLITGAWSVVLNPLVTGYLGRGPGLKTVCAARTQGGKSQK

| EC50 [1] | Activity [2] | EC50 [3] | fEC50 [1] | Activity [4] | Fu [14] | Compound | further results |
| --- | --- | --- | --- | --- | --- | --- | --- |
| > 10 µM | 224% | 0.155 µM | – | – | – | COc1ccc(F)c(-c2cc3c(cc2F)[C@H](Oc2cccc([C@H](C4CC4)[C@H](C)C(=O)O)c2)CC3)c1 | – |
| 5.95 µM | 352% | – | 3.7 nM | 131% | – | COc1ccc(F)c(-c2ccc3c(c2)CC[C@H]3Oc2cccc([C@@H](CC(=O)O)C3CC3)c2)c1 | – |
| – | – | – | – | – | – | COc1ccc(F)c(-c2ccc([C@@H]3CCc4ccc([C@H](C5CC5)[C@H](C)C(=O)O)cc4O3)cc2)c1 | solubility [5]: 125 µM (≈ 57.6 µg/mL) |
| – | – | – | – | – | – | Cc1cc(OCCCS(C)(=O)=O)cc(C)c1-c1cccc(COc2ccc3c(c2)OC[C@H]3CC(=O)O)c1 | Activity (Rattus norvegicus [6]): Active |
| – | – | – | – | – | – | CC#C[C@@H](CC(=O)O)c1ccc(OCc2cccc(-c3ccc(C(F)(F)F)cc3)c2)cc1 | Activity (Rattus norvegicus [6]): Active |
| 0.245 µM | 342% | 0.002 µM | 0.08 nM | 318% | 0.05% | COc1cc(-c2ccc3c(c2)CC[C@H]3Oc2cccc([C@H](C3CC3)[C@H](C)C(=O)O)c2F)c(F)cn1 | inhibition in vivo at 3 mg/kg (Rattus norvegicus [7]): 49%; bioavailability [8]: > 100%; concentration at 3 h [9]: 0.6 µM; clearance [10]: 0.174 L/h/kg; Cmax [11]: 6.3 µM; Cp(f) [12]: 0.0003 µM; AUC/dose [13]: 36.2 µM·h; Vd [15]: 0.78 L/kg; half-life [16]: 5.1 h; Fu [17]: 0.05% |
| > 10 µM | 224% | – | – | – | – | COc1ccc(F)c(-c2cc(F)c3c(c2)CC[C@H]3Oc2cccc([C@@H](CC(=O)O)C3CC3)c2)c1 | – |
| 7.35 µM | 291% | 0.016 µM | 66 nM | 138% | 0.9% | COc1ccc(F)c(-c2ccc3c(c2)OC[C@@H]3Oc2cccc([C@@H](CC(=O)O)C3CC3)c2)c1 | – |
| 3.55 µM | 448% | 0.011 µM | 3.2 nM | 372% | 0.04% | COc1cc(-c2ccc3c(c2)CC[C@H]3Oc2cccc([C@H](C3CC3)[C@H](C)C(=O)O)c2)ccn1 | – |
| – | – | – | – | – | – | O=C1NC(=O)C(C2CCOc3cc(Oc4ccc(C(F)(F)F)cc4Cl)ccc32)S1 (centres undefined) | Activity (Rattus norvegicus [18]): 97% |
| 0.127 µM | 395% | 0.003 µM | 0.03 nM | 264% | 0.02% | COc1ccc(F)c(-c2ccc3c(c2)CC[C@H]3Oc2cccc([C@H](C3CC3)[C@H](C)C(=O)O)c2F)c1 | inhibition in vivo at 3 mg/kg (Rattus norvegicus [7]): 10%; bioavailability [8]: > 100%; concentration at 3 h [9]: 2.5 µM; clearance [10]: 0.168 L/h/kg; Cmax [11]: 2.9 µM; Cp(f) [12]: 0.0005 µM; AUC/dose [13]: 9.3 µM·h; Vd [15]: 0.85 L/kg; half-life [16]: 3.1 h; Fu [17]: 0.02% |
| > 10 µM | – | – | – | – | 0.05% | COc1ccc(F)c(-c2ccc(COc3cccc([C@@H](CC(=O)O)C4CC4)c3)cc2)c1 | – |
| 0.867 µM | 472% | 0.003 µM | 0.26 nM | 446% | 0.03% | COc1cc(-c2ccc3c(c2)CC[C@H]3Oc2cccc([C@H](C3CC3)[C@H](C)C(=O)O)c2)c(F)cn1 | inhibition in vivo at 3 mg/kg (Rattus norvegicus [7]): 94%; bioavailability [8]: 54%; concentration at 3 h [9]: 1.9 µM; clearance [10]: 0.036 L/h/kg; Cmax [11]: 10.7 µM; Cp(f) [12]: 0.00057 µM; AUC/dose [13]: 99.9 µM·h; Vd [15]: 0.18 L/kg; half-life [16]: 3.9 h; Fu [17]: 0.03% |
| 3.32 µM | 457% | – | 4.3 nM | 221% | 0.13% | COc1ccc(F)c(-c2cc3c(cn2)[C@H](Oc2cccc([C@H](C4CC4)[C@H](C)C(=O)O)c2)CC3)c1 | fold change (FC) [19]: < 100 |
| 0.81 µM | 352% | 0.0039 µM | 0.32 nM | 297% | – | COc1ccc(F)c(-c2ccc3c(c2F)CC[C@H]3Oc2cccc([C@H](C3CC3)[C@H](C)C(=O)O)c2)c1 | – |
| 5.45 µM | 101% | 0.326 µM | 2.3 nM | 110% | – | COc1ccc(F)c(-c2ccc3c(c2C2=CCCC2(C)C)CC[C@H]3Oc2cccc([C@H](C3CC3)[C@H](C)C(=O)O)c2)c1 | – |
| – | – | – | – | – | – | Cc1cc(OCCCS(C)(=O)=O)cc(C)c1-c1cccc(COc2ccc3c(c2)OC[C@H]3CC(=O)OC2O[C@H](C(=O)O)[C@@H](O)[C@H](O)[C@H]2O)c1 (some centres undefined) | Stability [20]: Unstable; Drug metabolism [21]: Metabolite detected |
| 5.49 µM | 339% | 0.06 µM | 0.6 nM | 84% | – | COc1ccc(F)c(-c2ccc3c(c2)CC[C@@H]3Oc2cccc([C@H](C3CC3)[C@H](C)C(=O)O)c2)c1 | – |
| 4.9 µM | 159% | – | 7.8 nM | 107% | 0.16% | COc1ccc(F)c(-c2cnc3c(c2)CC[C@H]3Oc2cccc([C@H](C3CC3)[C@H](C)C(=O)O)c2)c1 | – |
| > 10 µM | 366% | 0.151 µM | – | – | – | COc1ccc(F)c(-c2ccc3c(n2)CC[C@H]3Oc2cccc([C@H](C3CC3)[C@H](C)C(=O)O)c2)c1 | – |
| > 10 µM | 377% | 0.059 µM | – | – | – | COc1ccc(F)c(-c2ccc3c(c2)CC[C@H]3Oc2cccc([C@H](C3CC3)[C@@H](C)C(=O)O)c2)c1 | – |

Reference: ChEMBL document CHEMBL4387733, “Design, synthesis and biological evaluation of indane derived GPR40 agoPAMs” (Bioorg Med Chem Lett, 2019)
